The source of these data is US20240366589A1, “NHE3-BINDING COMPOUNDS AND METHODS FOR INHIBITING PHOSPHATE TRANSPORT” (Ardelyx, Inc., priority 2013, published 2024).

Entries after “also recorded” stand apart in the source; their conditions may differ.

For test [1], the system named is uremic rat model of CKD featuring vascular calcification. In words: Rat model of uremia-associated vascular calcification (5/6 nephrectomy, calcitriol, 0.9% P diet). Format: in vivo. From the text:
Chronic kidney disease (CKD) has multiple pathogenic mechanisms, and advanced CKD is often characterized by disordered mineral metabolism (e.g., hyperphosphatemia, hypercalcemia) and vascular calcification. Studies were thus performed to test the effectiveness of the dihydrochloride salt of Cpd 002 (from Table E4, as the dihydrochloride salt) in a uremic rat model of CKD featuring vascular calcification. This model is characterized by renal insufficiency and regular active Vitamin D3 administration to promote hyperphosphatemia and vascular calcification (see Lopez et al., J. Am. Soc. Nephrol. 17:795-804, 2006). The study utilized Spraque-Dawley rats treated as follows: 5/6th nephrectomy by excision; regular calcitriol administration (active vitamin D3) 80 ng/kg i.p. 3/week; and fed a purified 0.9% P diet (inorganic phosphorus).
Rats were stratified into two experimental groups by serum creatinine levels of 0.8 to 1.5 mg/dl and body weight, fed drug-in-chow with powdered vehicle diet or the same diet with Cpd 002 (0.065 mg/g chow) mixed-in, and monitored for weekly body weight and selected serum parameters, daily clinical observations, and endpoint calcification. The study design is illustrated in FIG. 2.
Selected experimental groups were fed vehicle (n=12) or Cpd 002 (n=12) at enrollment (day 0).

Test [2] concerns dietary salt-induced, partial renal ablation model of CKD. In words: Dietary salt-induced, partial renal ablation model of CKD in nephrectomized rats. Format: in vivo, rat. The protocol:
The effects of Cpd 002 (from Table E4, as the dihydrochloride salt) were tested in a dietary salt-induced, partial renal ablation model of CKD. The study design is illustrated in FIG. 11A (12 rats per group).

The subject of test [3] is phosphorus and calcium levels in the urine of rats. In words: Urinary excretion of phosphate and calcium in rats (16 h overnight urine). Format: in vivo, rat.
The subject of test [4] is intestinal phosphate uptake. In words: Pharmacodynamic study with 33P oral challenge in normal function rats. Format: in vivo, rat. Conditions: 8 mM Pi with 33P, 10 mg/kg, dihydrochloride salts, FIG. 1A. The protocol:
The compounds identified as Cpds 003, 004, and 005 (from Table E4, as their dihydrochloride salts) were tested for the ability to block intestinal phosphate uptake in rats. Rats were orally challenged with dosing solutions composed of 5 ml/kg (˜1.3 ml) of 8 mM Pi with ^33P and +/−10 mg/kg of test compound. Also included were dosing solutions further composed of either (i) 75 mM glucose+4 mM Ca or (ii) 4 mM Ca.

The mark [5] stands for this setting: endpoint day 27, 0.065 mg/g chow, vs vehicle.
Setting [6] is: endpoint, 0.065 mg/g chow, vs vehicle.
Where [7] appears, read: organ weight/body weight, 0.065 mg/g chow, vs vehicle.
Where [8] appears, read: relative to vehicle-only control, 0.1-3.0 mg/kg, 16 h urine.

On to `CN1Cc2c(Cl)cc(Cl)cc2[C@H](c2cccc(S(=O)(=O)NCCOCCOCCNC(=O)NCCCCNC(=O)NCCOCCOCCNS(=O)(=O)c3cccc([C@@H]4CN(C)Cc5c(Cl)cc(Cl)cc54)c3)c2)C1` [Cpd 002], for which the endpoint plasma aldosterone entry in test [1] (0.065 mg/g chow, vs vehicle) is recorded as “aldosterone increase”. Also, the plasma creatinine result in test [1] (endpoint day 27, 0.065 mg/g chow, dihydrochloride salt, vs vehicle) is recorded as “reduced plasma creatinine”. For the same molecule, in test [1] (setting [5]), the “plasma FGF-23” value was “reduced plasma FGF-23” and the plasma phosphorus entry is reported as “reduced plasma phosphorus; also recorded: anti-hyperphosphatemic effects”. Moreover, in test [1] (setting [6]), the “calcium and phosphorus in the stomach (soft tissue calcification)” value was “reduced calcium and phosphorus in the stomach”; the “vascular calcification as aortic mineral content” value is listed as “reduced vascular calcification; also recorded: reduce associated vascular calcification”. Also, in test [1] (setting [7]), the “endpoint heart weight (heart hypertrophy)” value was “lessened; also recorded: reduce both heart hypertrophy and renal hypertrophy”; the “endpoint kidney remnant weight (renal hypertrophy)” value was “lessened; also recorded: reduce both heart hypertrophy and renal hypertrophy”. In test [1] (treatment group vs vehicle), the moribundity result is listed as “decreased moribundity” and the mortality outcome was “trend toward improved mortality outcome”. Further, the phosphorus urinary excretion result in test [2] (FIG. 11B) is on record as “significantly reduced”. In addition, the blood pressure entry in test [2] (dihydrochloride salt) is “improved”. In test [2] (rat, in vivo), the albuminuria result is reported as “improved”, the fluid overload entry is given as “improved”, the heart hypertrophy entry is on record as “improved” and the kidney hypertrophy result is “improved”. For the same molecule, the urine phosphorus mass result in test [3] (increasing dosages, relative to 48 mg/kg Renvela) is on record as “significantly reduced”. In test [3] (setting [8]), the urine calcium mass entry is on record as “reduced” and the urine phosphorus mass entry was “reduced”.
For the molecule `CN1Cc2c(Cl)cc(Cl)cc2[C@@H](c2cccc(S(=O)(=O)NCCOCCOCCNC(=O)NCCCCNC(=O)NCCOCCOCCNS(=O)(=O)c3cccc([C@H]4CN(C)Cc5c(Cl)cc(Cl)cc54)c3)c2)C1` [Cpd 004], the “Pi uptake after 33P oral challenge” value in test [4] is given as “as potent at reducing Pi uptake as a persistent inhibitor such as Cpd 003”.
